Measured values published in US20090306031A1, “5alpha-ANDROSTANE-3,6,17-TRIONE (KNELLER'S TRIONE) AND METHODS OF USE THEREFOR” (priority 2009, published 2009).

Columns and labels:
[1] = Pilot study: adverse events and safety observations in study subjects; assay type: in vivo, human
[2] = Pilot study: sex hormone profile in men after oral daily Kneller's Trione; assay type: in vivo, human; details: for ending testosterone-to-estradiol ratio: day 14, ratio to 1; for change of testosterone-to-estradiol ratio: starting vs ending (14 days); for ESTRADIOL / BIOAVAILABLE TESTOSTERONE / DHT / TOTAL TESTOSTERONE: person
Protocol: The first study subject was a person who was dosed once per day orally with 25 mg per day of Kneller's Trione.
The second study subject was a person who was dosed once per day orally with 50 mg per day of Kneller's Trione.
The third study subject was a person who was dosed once per day orally with 100 mg per day of Kneller's Trione.

[3] = 25 mg daily oral, 14 days vs baseline
[4] = 50 mg daily oral, 14 days vs baseline
[5] = 100 mg daily oral, 14 days vs baseline

With `C[C@]12CCC(=O)C[C@@H]1C(=O)C[C@@H]1[C@@H]2CC[C@]2(C)C(=O)CC[C@@H]12` [Kneller's Trione, 5α-androstane-3,6,17-trione] the adverse event ([1]; 750 mg per day oral, subject withdrew from the pilot study) was “occurrence of a priaprism”, the “liver function, kidney function, blood lipid levels, blood pressure, heart rate, respirations, body temperature” value ([1]; every subject, frequent intervals, oral daily dosages 25 mg to 750 mg) was “within medically established normal ranges and values” and the “other adverse events noted by any study subject” value ([1]; oral daily dosages 25 mg to 750 mg) was “No other adverse events were noted”. The “increase in plasma bioavailable testosterone” value [2, 3] was 20%, the “increase in plasma total testosterone” value [2, 3] was 13% and the “reduction in plasma estradiol” value [2, 3] was 51%. For the same compound, the ending testosterone-to-estradiol ratio ([2]; 25 mg daily oral, starting ratio 133.83 to 1) was 308.26, the “change of testosterone-to-estradiol ratio” value ([2]; 25 mg daily oral) was 130% and the “change in plasma estradiol” value [2, 4] was “no change”. For the same compound, the “increase in plasma bioavailable testosterone” value [2, 4] was 21%, the “increase in plasma total testosterone” value [2, 4] was 28% and the ending testosterone-to-estradiol ratio ([2]; 50 mg daily oral, starting ratio 238.06 to 1) was 305.56. For the same compound, the “change of testosterone-to-estradiol ratio” value ([2]; 50 mg daily oral) was 28%, the “increase in plasma bioavailable testosterone” value [2, 5] was 146% and the “increase in plasma total testosterone” value [2, 5] was 93%. The “reduction in plasma estradiol” value [2, 5] was 26%, the ending testosterone-to-estradiol ratio ([2]; 100 mg daily oral, starting ratio 102.17 to 1) was 266.18 and the “change of testosterone-to-estradiol ratio” value ([2]; 100 mg daily oral) was 161%. The “added benefit over a dose of 100 mg per day” value ([2]; 250 mg per day oral) was “did not seem to offer any added benefit”, the “total testosterone and bioavailable testosterone levels” value ([2]; 250 mg per day oral) was “raised total testosterone and bioavailable testosterone levels substantially and safely” and the “added benefit over a dose of 100 mg per day” value ([2]; 500 mg per day oral) was “did not seem to offer any added benefit”. For the same compound, the “total testosterone and bioavailable testosterone levels” value ([2]; 500 mg per day oral) was “raised total testosterone and bioavailable testosterone levels substantially and safely”, the “added benefits of high dosage” value ([2]; 750 mg per day oral) was “no added benefits were seen” and the “plasma testosterone levels in men” value ([2]; general statement, dose not stated) was “substantial and significant increases”. For the same compound, the “plasma estradiol levels in men” value ([2]; general statement, relative to accepted normal limits) was “no changes outside the accepted normal limits”, the “increase of plasma free testosterone levels” value ([2]; oral administration, dose not stated) was “more than 100%” and the ESTRADIOL ([2]; 25 mg per day oral single dose, DAY 7, baseline 47 pg/mL) was 28 pg/mL. For the same compound, the “BIOAVAILABLE TESTOSTERONE” value ([2]; 25 mg per day oral single dose, DAY 7, baseline 843 pg/mL) was 966 pg/mL, the DHT ([2]; 25 mg per day oral single dose, DAY 7, baseline 42 ng/dL) was 36 ng/dL and the “TOTAL TESTOSTERONE” value ([2]; 25 mg per day oral single dose, DAY 7, baseline (day 0) 6,290 pg/mL) was 6,400 pg/mL. The ESTRADIOL ([2]; 25 mg per day oral single dose, DAY 14, baseline 47 pg/mL) was 23 pg/mL, the “BIOAVAILABLE TESTOSTERONE” value ([2]; 25 mg per day oral single dose, DAY 14, baseline 843 pg/mL) was 1,014 pg/mL and the DHT ([2]; 25 mg per day oral single dose, DAY 14, baseline 42 ng/dL) was 49 ng/dL. The “TOTAL TESTOSTERONE” value ([2]; 25 mg per day oral single dose, DAY 14, baseline (day 0) 6,290 pg/mL) was 7,090 pg/mL, the ESTRADIOL ([2]; 50 mg per day oral single dose, DAY 7, baseline 36 pg/mL) was 35 pg/mL and the “BIOAVAILABLE TESTOSTERONE” value ([2]; 50 mg per day oral single dose, DAY 7, baseline 169.7 pg/mL) was 209 pg/mL. The DHT ([2]; 50 mg per day oral single dose, DAY 7, baseline 47 ng/dL) was 46 ng/dL, the “TOTAL TESTOSTERONE” value ([2]; 50 mg per day oral single dose, DAY 7, baseline (day 0) 8,570 pg/mL) was 11,000 pg/mL and the ESTRADIOL ([2]; 50 mg per day oral single dose, DAY 14, baseline 36 pg/mL) was 36 pg/mL. For the same compound, the “BIOAVAILABLE TESTOSTERONE” value ([2]; 50 mg per day oral single dose, DAY 14, baseline 169.7 pg/mL) was 209 pg/mL, the DHT ([2]; 50 mg per day oral single dose, DAY 14, baseline 47 ng/dL) was 49 ng/dL and the “TOTAL TESTOSTERONE” value ([2]; 50 mg per day oral single dose, DAY 14, baseline (day 0) 8,570 pg/mL) was 11,000 pg/mL. For the same compound, the ESTRADIOL ([2]; 100 mg per day oral single dose, DAY 7, baseline 46 pg/mL) was 44 pg/mL, the “BIOAVAILABLE TESTOSTERONE” value ([2]; 100 mg per day oral single dose, DAY 7, baseline 794 pg/mL) was 1,432 pg/mL and the DHT ([2]; 100 mg per day oral single dose, DAY 7, baseline 35 ng/dL) was 48 ng/dL. The “TOTAL TESTOSTERONE” value ([2]; 100 mg per day oral single dose, DAY 7, baseline (day 0) 4,700 pg/mL) was 7,910 pg/mL, the ESTRADIOL ([2]; 100 mg per day oral single dose, DAY 14, baseline 46 pg/mL) was 34 pg/mL and the “BIOAVAILABLE TESTOSTERONE” value ([2]; 100 mg per day oral single dose, DAY 14, baseline 794 pg/mL) was 1,957 pg/mL. For the same compound, the DHT ([2]; 100 mg per day oral single dose, DAY 14, baseline 35 ng/dL) was 41 ng/dL and the “TOTAL TESTOSTERONE” value ([2]; 100 mg per day oral single dose, DAY 14, baseline (day 0) 4,700 pg/mL) was 9,050 pg/mL.
